RP-LC retention time data for 80 compounds are collected here from the METLIN SMRT retention time set (Domingo-Almenara et al. 2019).

The data set in a line: gradient 5% acetonitrile 3 min, to 50% in 2 min, to 85% in 15 min, held 3 min, 100 µL/min. Particulars: column: Zorbax Extend-C18 2.1 x 50 mm; eluents: water / acetonitrile, 0.1% formic acid. Put shortly:
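Retention times of pure standards were taken from adduct peaks that were selected by computer and manually inspected. Over 3 months, mixtures of ~100 molecules were run by HPLC–quadrupole time-of-flight mass spectrometry in positive and negative ionization mode. The Zorbax Extend-C18 column (2.1 × 50 mm, 1.8 μm) ran at 100 μL/min in water and acetonitrile, each containing 0.1% formic acid, with 40 μL dead volume and 900 μL dwell volume.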
In turn, `CCN(CCNC(=O)C12CCCC=C1N(Cc1ccccc1)C(=O)CC2)Cc1ccccc1` (stereo not given) displayed an RP-LC retention time of 603 s.
To `Cc1ccc(C(=O)N2C[C@@H](F)C[C@H]2C(=O)N2CCCCC2)c(C)c1` belongs 740 s; to `CCn1cc(CC(=O)NCc2ccc(C)o2)c2cccnc21`, 682 s.
Turning to `COc1ccc(NC(=O)C2(C)Oc3cccnc3N(C(C)C)C2=O)c(OC)c1` (stereo not given), the RP-LC retention time turned out to be 1010 s.
Compound `CCN(CC)C(=O)c1ccc(-c2nc3cc(NS(=O)(=O)c4cc(F)ccc4F)ccc3n2C)cc1` gave an RP-LC retention time of 704 s.
Regarding `COc1cccc(C(O)CN2CCN(c3cccc(C)c3)CC2)c1` (stereo not given), the RP-LC retention time came out at 663 s.
`CCCNC(=O)N1CCC(N2CCN(Cc3cccc(F)c3)C(=O)C2=O)CC1` showed an RP-LC retention time of 651 s.
In turn, `CC(C)NC(=O)c1cc(N2CCCC2)n2nccc2n1` gave an RP-LC retention time of 784 s.
Consider `Cc1ccc(CNC(=O)c2ccc3c(=O)n(-c4ccccc4)c(N4CCCC4)nc3c2)o1`, for which the RP-LC retention time is 830 s.
On to `Cc1ccc(Nc2c(-c3ccccc3O)nc3cc(C)ccn23)cc1`, for which the RP-LC retention time turned out to be 701 s.
In turn, `CN(CC1CCOCC1)S(=O)(=O)Cc1ccccc1Cl` yielded an RP-LC retention time of 834 s.
`CO[C@H]1C(=O)N(C(C)C)[C@H]1C1CCN(C(=O)c2sc(C)nc2C)CC1` yielded an RP-LC retention time of 650 s.
As for `CN(C)C(=O)N1CCC(c2nc(CCOc3ccc(F)cc3)no2)C1` (stereo not given), the RP-LC retention time is 767 s.
To `CCN1CCCC1CNC(=O)c1nc(CCS(=O)(=O)c2ccc(OC)cc2)no1` (stereo not given) belongs 622 s; to `O=C(NC1CCN(c2nnc3ccccn23)CC1)c1ccc2c(c1)OCO2`, 628 s.
To `Cc1cc(C(=O)NCc2ccco2)c2c(C)nn(-c3ccccc3Cl)c2n1` belongs 860 s; to `CC(C)c1ccc2c(c1)-c1ccccc1S(=O)(=O)N2CC(=O)NCCCN1CCOCC1`, 694 s; to `O=C(c1ccc(Oc2ccccc2)cc1)N1CC(c2nc3ccccc3[nH]2)C1`, 623 s.
`CCN(CC)C(=O)N[C@H]1C[C@@H]2c3cccc4[nH]cc(c34)C[C@H]2N(C)C1` displayed an RP-LC retention time of 679 s.
To `O=C(Cn1ccc2sccc2c1=O)Nc1cccc(F)c1` belongs 746 s; to `COc1ccc(Cl)cc1NC(=O)N1CCC(OC2CCN(S(C)(=O)=O)CC2)CC1`, 811 s.
To `CN1CCCC1c1nc(C2CN(C(=O)c3ccnn3C)C2)no1` (stereo not given) belongs 543 s; to `O=C(CN1C(=O)CCc2cc(S(=O)(=O)N3CCCCC3)ccc21)NC1CCCc2ccccc21` (stereo not given), 935 s; to `Fc1ccccc1N1CCN(c2ncnc3sc4c(c23)CCC4)CC1`, 1150 s.
To `COc1ccc(Cl)cc1S(=O)(=O)N1CCCC(C(=O)NCCc2ccccc2)C1` (stereo not given) belongs 935 s; to `CCn1ccc(C(=O)N2CCN(c3nc(CN4CCC(C)CC4)cs3)CC2)n1`, 613 s; to `CN1C(=O)c2cc(C(=O)N3CCCCCC3)nn2CC1(C)C(=O)NC1CCCC1` (stereo not given), 714 s.
In turn, `COc1ccc(Cn2nnc(C(=O)NCc3ccco3)c2-n2cccc2)cc1` registered an RP-LC retention time of 925 s.
To `Cc1nc(Nc2ccccn2)sc1C(=O)N1CCN(C2CCCCC2)CC1` belongs 597 s.
The same measure for `CC(C)N1C(=O)C(C)(C(=O)NCc2ccc3c(c2)OCO3)Oc2cccnc21` (stereo not given): 894 s; for `CCN(CCN(C)C)c1ccc(C(=O)O)cc1NS(=O)(=O)c1ccc(C)cc1`: 623 s; for `Cc1nn(-c2nc(CC(=O)N(CCO)Cc3ccccc3)cs2)c(C)c1Cl`: 943 s.
To `CCn1ncc(N2CCC(NC(=O)C(C)(C)C)CC2)cc1=O` belongs 576 s; to `Cc1noc(CNC(=O)C2CCN(C(=O)Cc3cn(C)c4ccccc34)CC2)n1`, 656 s.
`COc1cc(NS(=O)(=O)c2ccc3c(c2)-c2oncc2CO3)cc(OC)c1OC`: the RP-LC retention time is 805 s.
To `COc1cccc(CNC(=O)C2CCCN(c3cnc4nccnc4c3)C2)c1OC` (stereo not given) belongs 675 s; to `Cc1ncc2c(n1)C[C@@H]1CC[C@H]2N1C(=O)Nc1ccc(C)c(C)c1`, 707 s.
To `CSc1cccc(NC(=O)N2CCN(Cc3nc4cc(C)ccc4o3)CC2)c1` belongs 776 s; to `Cc1cc(N(C)C)nc(NCCNC(=O)C(C)(C)Oc2ccc(Cl)cc2)n1`, 598 s; to `COC(=O)CNC(=O)N1CCC2(CC1)Nc1cc(F)ccc1-n1cccc12`, 816 s.
The same measure for `COC(=O)c1c(C)[nH]c(C(=O)N2CCC(CC(=O)NCc3ccc4c(c3)OCO4)CC2)c1C`: 770 s; for `COCCCNC(=O)CCc1cn(Cc2ccccc2F)c2ccccc12`: 909 s.
As for `COc1ccc(NC(=O)N2CCC(n3c(C)nc4cccnc43)CC2)cc1OC`, the RP-LC retention time came to 563 s.
For the compound `O=C1CCCCC(Cc2ccccc2)(C(=O)NCc2cccc(C(F)(F)F)c2)N1` (stereo not given), the RP-LC retention time was found to be 893 s.
Take `O=C(Nc1nc(-c2ccc(Br)s2)cs1)c1ccc([N+](=O)[O-])s1`: the RP-LC retention time was determined as 1120 s.
In turn, `CC(C)NC(=O)CCc1c(-c2ccc(Cl)cc2)nc2ccccn12` showed an RP-LC retention time of 622 s.
To `O=C(NCc1ccc(C(F)(F)F)cc1)c1ccc(-c2cncnc2)nc1` belongs 782 s.
To `O=C(CNC(=O)c1ccccn1)Nc1nc2ccccc2[nH]1` belongs 601 s.
Turning to `O=C(Nc1ccc2c(c1)OCO2)N1CCC2(CC1)Nc1cc(F)ccc1-n1cccc12`, the RP-LC retention time came to 1000 s.
`c1ccc(-c2ccc(CNCCc3c[nH]c4ccccc34)o2)cc1` came in with an RP-LC retention time of 735 s.
As to `CN(C)C1(CC2CC2)CCN(C(=O)C2CCCC2)CC1`, the RP-LC retention time was 604 s.
Take `O=C(Nc1c(F)cccc1F)N1CCC(c2ccccc2)C1` (stereo not given): the RP-LC retention time amounted to 767 s.
On to `CC1=C(c2ccc(F)cc2)S(=O)(=O)N=C1N1CCCN(C(=O)NC(C)(C)C)CC1`, for which the RP-LC retention time was 602 s.
`Cc1cc2n(n1)CCCN2C(=O)CCC(=O)N1CCc2ccccc2C1`: the RP-LC retention time stood at 699 s.
To `Cc1ccc(-n2c(=O)c3sccc3n(Cc3nc(-c4ccc(C(F)(F)F)cc4)no3)c2=O)cc1` belongs 1190 s.
To `COc1ccc(-c2cc(C(=O)N(C)C3CCCCC3)nn2C2CCS(=O)(=O)C2)cc1` (stereo not given) belongs 924 s; to `O=S(=O)(c1ccccc1)N1CC(n2cc(COc3ccc(F)cc3)nn2)C1`, 888 s; to `COc1ccc2[nH]cc(CCN3CC(C(=O)Nc4cc(C)cc(C)c4)CC3=O)c2c1` (stereo not given), 846 s.
The compound `CN(CC1CCOC1)C(=O)Nc1cccc(Br)c1` (stereo not given) gave an RP-LC retention time of 716 s.
In turn, `Cc1ccccc1CNC(=O)C1(C)CCCN(C(=O)Nc2ccc(F)c(Cl)c2)C1` (stereo not given) had an RP-LC retention time of 1040 s.
`COc1ccc(N2C(=O)CCC(C(=O)NCCCN3CCN(C)CC3)C2c2ccc(F)cc2)cc1` (stereo not given) gave an RP-LC retention time of 526 s.
The same measure for `NC(=O)C1CCN(C(=O)CSc2nnnn2-c2ccccc2)CC1`: 621 s; for `CN1C(=O)COc2ccc(-c3csc(NC(=O)COc4ccc(Cl)cc4)n3)cc21`: 1010 s; for `CC(=O)c1ccc(NC(=O)CN2C(=O)C3CCCCN3c3ccc(C(=O)N4CCCC4)cc32)cc1` (stereo not given): 996 s.
To `Cc1[nH]c(C(=O)N2CCC(CC(=O)N(C)Cc3ccco3)CC2)c(C)c1C(=O)OC(C)C` belongs 798 s.
As to `CC(C)c1cc(C2CCCN2C(=O)c2ccsc2)no1` (stereo not given), the RP-LC retention time amounted to 828 s.
To `CCCS(=O)(=O)N1CCc2nc(N3CCN(C)CC3)sc2C1` belongs 764 s; to `O=C(NCCc1ccsc1)C1CC(=O)N(c2ccc(F)cc2)C1` (stereo not given), 698 s; to `CCCn1cc(CCNS(=O)(=O)c2ccc3c(c2)CCCC3)c2cccnc21`, 1030 s.
In turn, `CCOc1cc(-c2nc(C3CC(=O)N(c4ccc(C)cc4)C3)no2)cc(OCC)c1OCC` (stereo not given) gave an RP-LC retention time of 1150 s.
As for `O=C(NCc1cccc(Br)c1)C1CCCN(c2nccnc2Sc2ccccc2)C1` (stereo not given), the RP-LC retention time worked out at 1130 s.
As for `Cc1c(C2CCN(C(=O)c3nccc4ccccc34)CC2)noc1N`, the RP-LC retention time came out at 617 s.
The same measure for `O=C(Cn1nc2c3sc(N4CCCCC4)nc3ncn2c1=O)Nc1cc(F)cc(F)c1`: 828 s; for `COc1ccc(-n2ncc3c(=O)n(Cc4nc(-c5cc(OC)c(OC)c(OC)c5)no4)cnc32)cc1`: 927 s; for `CCOc1ccc(-c2noc(N3CCC(C(=O)Nc4cc(Cl)ccc4OC)CC3)n2)cc1OC`: 1090 s.
To `CCCn1ccc2sc(C)c(C(=O)NCc3cc(C)ccc3C)c2c1=O` belongs 1020 s.
Consider `Cc1cc(C(=O)Nc2cccc(Cl)c2)nc2ccnn12`, for which the RP-LC retention time came to 988 s.
To `COc1cccc(S(=O)(=O)N2CCCN(C)c3ccccc32)c1` belongs 976 s; to `COc1ccc(-c2nc(C3CC(=O)N(c4ccccc4)C3)no2)cc1` (stereo not given), 971 s; to `O=C(Cn1cccc1-c1nc(-c2ccc(Cl)cc2)cs1)NCCN1CCOCC1`, 711 s.
